Results taken from article PMC9293634, “Conformational flexibility in carbapenem hydrolysis drives substrate specificity of the class D carbapenemase OXA-24/40” (The Journal of Biological Chemistry, 2022).

What was measured:
OXA-24/40 [1] = biological target: T1, OXA-24/40 (Acinetobacter baumannii, UniProt Q8RLA6, K84D); experiment: X-ray crystal structure of acyl-enzyme ([…] Å); format: binding
T1 construct: gene blaOXA-33

OXA-24/40 [2] = biological target: T1, OXA-24/40; experiment: X-ray crystal structure ([…] Å), intact β-lactam; format: binding

T1 sequence (Q8RLA6 32-275 K84D): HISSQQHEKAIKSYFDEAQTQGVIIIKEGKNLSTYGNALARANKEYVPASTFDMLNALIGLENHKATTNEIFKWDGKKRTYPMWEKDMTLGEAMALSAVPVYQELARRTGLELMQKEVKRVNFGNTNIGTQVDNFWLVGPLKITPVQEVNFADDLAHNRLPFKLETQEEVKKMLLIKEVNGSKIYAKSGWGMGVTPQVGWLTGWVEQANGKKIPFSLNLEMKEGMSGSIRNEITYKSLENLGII

| Compound | X-ray crystal structure of acyl-enzyme (2.28 Å) (OXA-24/40 [1]) | X-ray crystal structure (2.58 Å), intact β-lactam (OXA-24/40 [2]) |
| --- | --- | --- |
| C[C@@H](O)[C@H]1C(=O)N2C(C(=O)O)=C(SCCN=CN)C[C@H]12 [imipenem] | A predominant conformation for imipenem was observed in the K84D complex |  |
| C[C@@H](O)[C@H]1C(=O)N2C(C(=O)O)=C(S[C@@H]3CN[C@H](C(=O)Nc4cccc(C(=O)O)c4)C3)[C@H](C)[C@H]12 [ertapenem] |  | In the K84D–ertapenem structure, ertapenem is bound as an intact β-lactam, yet in an unproductive binding mode |
